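Five compound concentrations were applied to cells in 96-well plates for 48 hours; endpoints were derived by simple linear interpolation of the resulting dose-response curve. Abbreviation: GI50, concentration required for 50% inhibition of growth.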 Active and inactive are the calls of the source. No stated cut-off is given here; in the data, active = GI50 up to about 1.1 µM and inactive = higher. Where a SMILES comes first, the peptide text is derived from it.
Tests used:
Experiment in all cases: DTP human tumour cell line panel, 48 h
A498 = tested on: A498
HOP-62 = tested on: HOP-62
KM12 = tested on: KM12
MCF7 = tested on: MCF7
Malme-3M = tested on: Malme-3M
NCI/ADR-RES = tested on: NCI/ADR-RES
OVCAR-5 = tested on: OVCAR-5
OVCAR-8 = tested on: OVCAR-8
RXF 393 = tested on: RXF 393
SK-MEL-2 = tested on: SK-MEL-2
SN12C = tested on: SN12C
SNB-19 = tested on: SNB-19
SW-620 = tested on: SW-620
UO-31 = tested on: UO-31
EKVX = tested on: EKVX
M14 = tested on: M14

| SMILES | GI50 (A498) | GI50 (HOP-62) | GI50 (KM12) | GI50 (MCF7) | GI50 (Malme-3M) | GI50 (NCI/ADR-RES) | GI50 (OVCAR-5) | GI50 (OVCAR-8) | GI50 (RXF 393) | GI50 (SK-MEL-2) | GI50 (SN12C) | GI50 (SNB-19) | GI50 (SW-620) | GI50 (UO-31) | GI50 (EKVX) | GI50 (M14) |
| --- | --- | --- | --- | --- | --- | --- | --- | --- | --- | --- | --- | --- | --- | --- | --- | --- |
| CCS(=O)(=O)Nc1ccc(Nc2c3ccccc3nc3ccccc23)c(OC)c1 | 0.24 µM (active) | 0.067 µM (active) | 1.75 µM (inactive) | 0.0984 µM (active) | 0.515 µM (active) | 5 µM (inactive) | 3.23 µM (inactive) | 0.885 µM (active) | 1.99 µM (inactive) | 5.37 µM (inactive) | 0.166 µM (active) | 0.273 µM (active) | 0.527 µM (active) | 0.397 µM (active) |  |  |
| Cc1cc(Cl)ccc1NC(=O)CC1SC(Nc2ccccc2Cl)=NC1=O (configuration not stated) | 65.6 µM (inactive) | > 100 µM (inactive) | 33.3 µM (inactive) |  | 91.8 µM (inactive) |  | > 100 µM (inactive) | 29.6 µM (inactive) | 26.1 µM (inactive) | 48.4 µM (inactive) | 33.8 µM (inactive) | 32.4 µM (inactive) | 37.2 µM (inactive) | 35.5 µM (inactive) | 73.3 µM (inactive) | 49.2 µM (inactive) |
| CC1NC(=O)CNC(=O)CNC(=O)C(Cc2ccc(O)cc2)NC(=O)C(C(C)C)NC(=O)C(C)NC1=O (configuration not stated) (cyclo(GGAAVY); configuration not given here) | > 100 µM (inactive) | > 100 µM (inactive) | > 100 µM (inactive) | > 100 µM (inactive) |  | > 100 µM (inactive) | > 100 µM (inactive) | > 100 µM (inactive) |  | > 100 µM (inactive) | > 100 µM (inactive) | > 100 µM (inactive) | > 100 µM (inactive) | > 100 µM (inactive) | > 100 µM (inactive) |  |
| CC12O[Te]34OC1(C)C(C)(O3)C2(C)O4 | > 8.75 µM (inactive) | 20.4 µM (inactive) | 14.8 µM (inactive) |  | 18.1 µM (inactive) |  | 12.2 µM (inactive) | 12.5 µM (inactive) | 14.8 µM (inactive) | 15.7 µM (inactive) | 10.9 µM (inactive) | 14.6 µM (inactive) | 14.8 µM (inactive) | 11.8 µM (inactive) | 20.1 µM (inactive) | 16.5 µM (inactive) |
| C[Si](C)(C)[C@@]1([Se]c2ccccc2)CC[C@@H]1C(=O)c1ccccc1 | > 100 µM (inactive) | > 100 µM (inactive) | 44.9 µM (inactive) |  | 70 µM (inactive) |  | > 100 µM (inactive) | 50.5 µM (inactive) | 19 µM (inactive) | 23.7 µM (inactive) | 61.4 µM (inactive) | 35.8 µM (inactive) | 53 µM (inactive) | 32.3 µM (inactive) | 49.3 µM (inactive) | 80.4 µM (inactive) |
| CCc1ccccc1NC(=O)C1=C(C)NC(C)=C(C(=O)Nc2ccccc2CC)C1c1ccccc1Cl | 18.7 µM (inactive) | > 100 µM (inactive) | > 100 µM (inactive) |  | > 100 µM (inactive) |  | > 100 µM (inactive) | > 100 µM (inactive) | > 100 µM (inactive) | > 100 µM (inactive) | > 100 µM (inactive) | > 100 µM (inactive) | > 100 µM (inactive) | 35.5 µM (inactive) | > 100 µM (inactive) | > 100 µM (inactive) |
| O=C(CCN1CCOCC1)C(=Cc1ccccc1)C(=O)CCN1CCOCC1 | 17.3 µM (inactive) | 21.2 µM (inactive) | 5.01 µM (inactive) | 3.19 µM (inactive) | 2.45 µM (inactive) | 2.46 µM (inactive) | 19.2 µM (inactive) | 2.91 µM (inactive) | 1.68 µM (inactive) | 8.34 µM (inactive) | 2.96 µM (inactive) | 14.9 µM (inactive) | 1.92 µM (inactive) | 12.3 µM (inactive) | 2.21 µM (inactive) |  |
| Cc1cc(/N=N/c2ccc(/N=N/c3c(O)c(S(=O)(=O)O)cc4cc(S(=O)(=O)O)ccc34)cc2C)ccc1/N=N/c1ccc2cc(S(=O)(=O)O)cc(S(=O)(=O)O)c2c1 | > 100 µM (inactive) | > 100 µM (inactive) | > 72.4 µM (inactive) | > 100 µM (inactive) | > 100 µM (inactive) | > 100 µM (inactive) | > 100 µM (inactive) | > 31.6 µM (inactive) | > 100 µM (inactive) | > 100 µM (inactive) | > 100 µM (inactive) | > 100 µM (inactive) | > 100 µM (inactive) | > 100 µM (inactive) | > 100 µM (inactive) |  |
| O=C(CCN(C(=O)O)S(=O)(=O)c1ccc(NC(=O)c2ccccc2)cc1)Nc1ccccc1 | > 100 µM (inactive) | > 100 µM (inactive) | > 100 µM (inactive) |  | > 100 µM (inactive) |  | > 100 µM (inactive) | > 96.2 µM (inactive) | > 100 µM (inactive) | > 100 µM (inactive) | > 100 µM (inactive) | > 100 µM (inactive) | > 55 µM (inactive) | > 100 µM (inactive) | > 100 µM (inactive) | > 100 µM (inactive) |
| CC1=NN2C(c3ccc([N+](=O)[O-])cc3)=CSC2=NC(C)(C)C1 | > 100 µM (inactive) | > 100 µM (inactive) | > 100 µM (inactive) |  | > 100 µM (inactive) |  | > 100 µM (inactive) | > 100 µM (inactive) | > 100 µM (inactive) | > 100 µM (inactive) | > 100 µM (inactive) | > 100 µM (inactive) | > 100 µM (inactive) | 88.1 µM (inactive) | > 100 µM (inactive) | > 100 µM (inactive) |
| CN(C)c1cccc(OC(=O)NCCCl)c1 | > 100 µM (inactive) | > 100 µM (inactive) | > 100 µM (inactive) | > 100 µM (inactive) |  | > 100 µM (inactive) | > 100 µM (inactive) | > 100 µM (inactive) |  | > 100 µM (inactive) | > 100 µM (inactive) | > 100 µM (inactive) | > 100 µM (inactive) | > 100 µM (inactive) | > 100 µM (inactive) |  |
| CCOC(=O)C(Sc1ccccc1)c1c(OC)cc(=O)oc1/C=[N+](/[O-])c1ccc(N(C)C)cc1 (configuration not stated) | 52.7 µM (inactive) | 66.4 µM (inactive) | 21.7 µM (inactive) |  | 17.2 µM (inactive) |  | 46 µM (inactive) | 18.4 µM (inactive) | 16.2 µM (inactive) | 24.9 µM (inactive) | 16.2 µM (inactive) | 54.8 µM (inactive) | 14.7 µM (inactive) | 18.5 µM (inactive) | 33.3 µM (inactive) | 16.2 µM (inactive) |
| O=C(Nc1ccccc1-c1nn(CN2CCNCC2)c(=S)n(CN2CCNCC2)c1=O)C(F)(F)F | 18.2 µM (inactive) | 19.6 µM (inactive) | 19.7 µM (inactive) |  | 17.9 µM (inactive) |  | 22.9 µM (inactive) | 20.6 µM (inactive) | 16.3 µM (inactive) | 19.4 µM (inactive) | 19.4 µM (inactive) | 21.6 µM (inactive) | 10.1 µM (inactive) | 13.6 µM (inactive) | 14.2 µM (inactive) | 16.9 µM (inactive) |

Source: ChEMBL document CHEMBL1201862, “PubChem BioAssay data set” (2004)
